Assay results from patent US20190240225A1, “COMBINATION OF A BCL-2 INHIBITOR AND A MCL-1 INHIBITOR, USES AND PHARMACEUTICAL COMPOSITIONS THEREOF” (LES LABORATOIRES SERVIER, priority 2016, published 2019).
Where two headings read alike, the source gives them in different places.

Legend:
Type in all cases: cell-based
KARPAS-422 = test: CellTiterGlo viability, DLBCL cell line; conditions: single agent, 2 days; for IC50: read-out: Abs IC50
Experimental: (§5) In addition, all media contained penicillin (100 IU/ml), streptomycin (100 μg/ml) and L-glutamine (2 mM). Unless otherwise mentioned, culture media and supplements were from Amimed/Bioconcept (Allschwil, Switzerland).
(§6) Cell lines were cultured at 37° C. in a humidified atmosphere containing 5% CO2 and expanded in T-75 flasks. In all cases cells were thawed from frozen stocks, expanded through ≥1 passage using appropriate dilutions, counted and assessed for viability using a CASY cell counter (Omni Life Science, Bremen, Germany) prior to plating 25 ul/well at the densities indicated in Table 1 into 384-well plates (Corning).
(§7) Stock solutions of compounds were prepared at a concentration of 10 mM in DMSO (Sigma) and stored at −20° C. Where necessary to afford a full dose-response curve, the stock solutions were pre-diluted in DMSO to 1′000-fold the desired start concentration (see Table 2). On the day after cell seeding, eight 2.5-fold serial dilutions of each compound were dispensed, either individually or in all possible permutations in a checkerboard fashion, directly into the cell assay plates using a non-contact 300D Digital Dispenser (ILCAN, Mannedorf, Switzerland) as outlined in FIG. 4. The final concentration of DMSO was 0.2% in all wells.
(§8) Effects of the single agents as well as their checkerboard combinations on cell viability were assessed after 2 days of incubation at 37° C./5% CO2 by quantification of cellular ATP levels using CellTiterGlo (Promega, Madison, Wis., USA) at 25 μL reagent/well and n=2 replicate plates per condition. Luminescence was quantified on a M1000 multipurpose platereader (ILCAN, Mannedorf, Switzerland). The number/viability of cells at time of compound addition was likewise assessed and used to assess the degree of the population doubling time of a particular cell line.
(§9) Single agent IC50s were calculated using standard four-parametric curve fitting. […] IC50 are defined as the compound concentration at which the CTG signal is reduced to 50% of that measured for the vehicle (DMSO) control.

DOHH-2 = test: CellTiterGlo viability, DLBCL cell line; conditions: single agent, 2 days; for IC50: read-out: Abs IC50
Experimental: as §5
Cell lines were cultured at 37° C. in a humidified atmosphere containing 5% CO2 and expanded in T-75 flasks. In all cases cells were thawed from frozen stocks, expanded through ≥1 passage using appropriate dilutions, counted and assessed for viability using a CASY cell counter (Omni Life Science, Bremen, Germany) prior to plating 25 ul/well at the densities indicated in Table 1 into 384-well plates (Corning). All cell lines were determined to be free of mycoplasma contamination by PCR assay performed at Idexx Radii (Columbia, Mo., USA) and misidentification ruled out by assessment of a panel of 48 Small Nucleotide Polymorphisms (SNPs) at Asuragen (Austin, Tex., USA) or in-house.
as §7, §8
Single agent IC50s were calculated using standard four-parametric curve fitting. […] All calculations were performed using the Combination Analysis Module in-house software. IC50 are defined as the compound concentration at which the CTG signal is reduced to 50% of that measured for the vehicle (DMSO) control.

RL = test: CellTiterGlo viability, DLBCL cell line; conditions: single agent, 2 days; for IC50: read-out: Abs IC50
Experimental: as §5, §6, §7, §8, §9

DND-41 = test: CellTiterGlo viability, T-ALL cell line; conditions: 72 h
Experimental: (§1) In addition, all media contained penicillin (100 IU/ml), streptomycin (100 μg/ml) and L-glutamine (2 mM). Cell lines were cultured at 37° C. in a humidified atmosphere containing 5% CO2 and expanded in T-150 flasks. In all cases cells were thawed from frozen stocks, expanded through ≥1 passage using appropriate dilutions, counted and assessed for viability using a CASY cell counter prior to plating 150 ul/well at the densities indicated in Table 9 into 96-well plates. All cell lines were determined to be free of mycoplasma contamination in-house.
(§2) Stock solutions of compounds were prepared at a concentration of 5 mM in DMSO and stored at −20° C. In order to analyse the activity of the compounds as single agents, cells were seeded and treated with nine 2-fold serial dilutions of each compound dispensed individually directly into the cell assay plates. Effects of the compounds on cell viability were assessed after 3 days of incubation at 37° C./5% CO2 by quantification of cellular ATP levels using CellTiterGlo at 75 μL reagent/well. All the conditions were tested in triplicates. Luminescence was quantified on a multipurpose plate reader. Single agent IC50s were calculated using standard four-parametric curve fitting. IC50 is defined as the compound concentration at which the CTG signal is reduced to 50% of that measured for the vehicle (DMSO) control.
(§3) In order to analyse the activity of the compounds in combination, cells were seeded and treated with seven or eight 3.16-fold serial dilutions of each compound dispensed, either individually or in all possible permutations in a checkerboard fashion, directly into the cell assay plates as indicated in FIG. 1. Effects of the single agents as well as their checkerboard combinations on cell viability were assessed after 3 days of incubation at 37° C./5% CO2 by quantification of cellular ATP levels using CellTiterGlo at 75 μL reagent/well. For B-ALL cell lines, two independent experiments, each one performed in duplicates, were performed. For T-ALL cell lines, one experiment performed in triplicate was performed. Luminescence was quantified on a multipurpose plate reader.
(§4) Potential synergistic interactions between compound combinations were assessed using the Excess Inhibition 2D matrix according to the Loewe additivity model and are reported as Synergy Score (Lehar et al, Nat Biotechnol. 2009 July; 27(7): 659-666). All calculations were performed using Chalice TM Bioinformatics Software available in Horizon website. The doubling time indicated in Table 9 is the mean of the doubling time obtained in the different passages (in T-150 flasks) performed from the thawing of the cells to their seeding in the 96-well plates.

TALL-104 = test: CellTiterGlo viability, T-ALL cell line; conditions: single agent, 72 h
Experimental: as §1, §2, §3, §4

CML-T1 = test: CellTiterGlo viability, T-ALL cell line; conditions: single agent, 72 h
Experimental: as §1, §2, §3, §4

BE-13 = test: CellTiterGlo viability, T-ALL cell line; conditions: single agent, 72 h
Experimental: as §1, §2, §3, §4

MOLT-4 = test: CellTiterGlo viability, T-ALL cell line; conditions: single agent, 72 h
Experimental: as §1, §2, §3, §4

HPB-ALL = test: CellTiterGlo viability, T-ALL cell line; conditions: single agent, 72 h
Experimental: as §1, §2, §3, §4

| Structure (SMILES) | IC50 (KARPAS-422; Homo sapiens, 48 h) | Max Inh (KARPAS-422) | IC50 (DOHH-2; Homo sapiens, 48 h) | Max Inh (DOHH-2) | IC50 (RL; Homo sapiens, 48 h) | Max Inh (RL) | IC50 (DND-41; DND41, single agent) | IC50 (TALL-104) | IC50 (CML-T1) | IC50 (BE-13) | IC50 (MOLT-4; Homo sapiens) | IC50 (HPB-ALL; Homo sapiens, HPBALL) | IC50 (KARPAS-422) | IC50 (DOHH-2) | IC50 (RL) | IC50 (DND-41; single agent) | IC50 (MOLT-4) | IC50 (HPB-ALL) |
| --- | --- | --- | --- | --- | --- | --- | --- | --- | --- | --- | --- | --- | --- | --- | --- | --- | --- | --- |
| Cl.O=C(c1cc(-c2cc3c(cc2C(=O)N2Cc4ccccc4C[C@H]2CN2CCOCC2)OCO3)n2c1CCCC2)N(c1ccccc1)c1ccc(O)cc1 [Compound 1, HCl, N-(4-hydroxyphenyl)-3-{6-[((3S)-3-(4-morpholinylmethyl)-3,4-dihydro-2(1H)-isoquinolinyl)carbonyl]-1,3-benzodioxol-5-yl}-N-phenyl-5,6,7,8-tetrahydro-1-indolizine carboxamide hydrochloride] | 2.18 µM | 90.9% | 0.156 µM | 101.9% | 0.281 µM | 99.0% | 9 µM | 15.9 µM | 15 µM | 6.7 µM | 3.29 µM | 4.5 µM | – | – | – | – | – | – |
| COc1ccccc1-c1nccc(COc2ccccc2C[C@@H](Oc2ncnc3sc(-c4ccc(F)cc4)c(-c4ccc(OCCN5CCN(C)CC5)c(Cl)c4C)c23)C(=O)O)n1 [Compound 3, (2R)-2-{[(5Sa)-5-{3-chloro-2-methyl-4-[2-(4-methylpiperazin-1-yl)ethoxy]phenyl}-6-(4-fluorophenyl)thieno[2,3-d]pyrimidin-4-yl]oxy}-3-(2-{[2-(2-methoxyphenyl)pyrimidin-4-yl]methoxy}phenyl)propanoic acid] | – | 98.3% | – | 98.3% | – | 95.4% | – | 0.044 µM | 6 µM | 0.015 µM | – | – | 0.00214 µM | 0.00122 µM | 3.03 µM | 7 µM | 0.026 µM | 0.66 µM |
